According to patent publication US9040712B2, “Thiadiazole analogs thereof and methods for treating SMN-deficiency-related-conditions” (NOVARTIS AG, priority 2013, dated 2015):
Structures can show the parent of a compound that is named as a salt.

system: SMN protein; assay: cellular SMN ELISA (SMN protein elevation); format: cell-based; conditions: myoblast cell line derived from SMNdelta7 mouse model; 24 hours compound treatment; concentration range 100 pM-10 uM
Experimental: A cellular SMN ELISA was used to measure the effects of low molecular weight compounds on SMN protein elevation. Cells from a myoblast cell line derived from the SMNdelta7 mouse model (kind gift from Steve Burden, NYU) were seeded into a 384-well plate at a density of 3000 cells/well and treated with compounds for 24 hours. ELISA capture plates were prepared by coating 384-well plates (Immulon 4HBX) with 0.5 ug/mL of anti-SMN mAb (BD Science, Catalog number 610647) at 4° C. overnight. The plates were washed 5 times with 110 uL of PBS-Tween (0.05% Tween-20, PBST), blocked with 100 uL of 1% BSA in PBST for 2 hours and washed (5 times) with 100 uL of PBST. After 24 hours of compound treatment cells were lysed in a modified RIPA-buffer, on ice for 1 hour. 20 uL of lysate and 20 uL of 1% BSA were then added to the ELISA capture plates and incubated at 4° C. overnight. Plates were washed (5 times) with PBST and then incubated with 1:100 dilution of primary rabbit anti-SMN polyclonal antibody (Santa cruz, Catalog number SC-15320) at room temperature for 1 hour and subsequently washed (5 times) with 110 uL of PBST. This was followed by addition of 1:100 Goat anti-Rabbit IgG-HRP linked (Cell Signaling, Catalog number 7074) secondary antibody for 1 hour. Plates were then washed with PBST and incubated with 40 uL TMB substrate (Cell Signaling, Catalog number 7004L) at room temperature for 1-10 minutes with shaking. The reaction was stopped by addition of 40 uL of stop solution (Cell signaling, Catalog number 7002L) and absorption was measured at 450 nm. Data was reported as fold activation over DMSO control and EC50. ELISA assay condition: compound concentration range 100 pM-10 uM.

| Compound | EC50 | SMN Activity Fold (fold activation over DMSO control) |
| --- | --- | --- |
| CN(c1nnc(-c2cc3ccccc3n(C)c2=O)s1)C1CC(C)(C)NC(C)(C)C1 [Example 104, 1-methyl-3-(5-(methyl(2,2,6,6-tetramethylpiperidin-4-yl)amino)-1,3,4-thiadiazol-2-yl)quinolin-2(1H)-one] | 100 nM | 2.76 fold |
| CN(c1nnc(-c2ncc(-c3cn[nH]c3)cc2F)s1)C1CC(C)(C)NC(C)(C)C1 [Example 55, 5-(3-fluoro-5-(1H-pyrazol-4-yl)pyridin-2-yl)-N-methyl-N-(2,2,6,6-tetramethylpiperidin-4-yl)-1,3,4-thiadiazol-2-amine] | 1010 nM | 2.75 fold |
| Cc1nc(C)c(-c2cc(F)c(-c3nnc(N(C)C4CC(C)(C)NC(C)(C)C4)s3)cc2F)s1 [Example 58, 5-(4-(2,4-dimethylthiazol-5-yl)-2,5-difluorophenyl)-N-methyl-N-(2,2,6,6-tetramethylpiperidin-4-yl)-1,3,4-thiadiazol-2-amine] | 386 nM | 2.41 fold |
| COC(=O)c1ccc(-c2nnc(N(C)C3CC(C)(C)NC(C)(C)C3)s2)c(F)c1 [Example 35, methyl 3-fluoro-4-(5-(methyl(2,2,6,6-tetramethyl-piperidin-4-yl)amino)-1,3,4-thiadiazol-2-yl) benzoate] | 864 nM | 2.81 fold |
| CN(c1nnc(-c2ccc(-c3cnn(C)c3)cn2)s1)C1CC(C)(C)NC(C)(C)C1 [Example 42, N-methyl-5-(5-(1-methyl-1H-pyrazol-4-yl)pyridin-2-yl)-N-(2,2,6,6-tetramethylpiperidin-4-yl)-1,3,4-thiadiazol-2-amine. Hydrochloride salt] | 675 nM | 2.32 fold |
| CN(c1nnc(-c2ccc(-c3cn[nH]c3)c(F)c2F)s1)C1CC(C)(C)NC(C)(C)C1 [Example 48, 5-(2,3-difluoro-4-(1H-pyrazol-4-yl)phenyl)-N-methyl-N-(2,2,6,6-tetramethylpiperidin-4-yl)-1,3,4-thiadiazol-2-amine] | 33 nM | 3.04 fold |
| CN1C[C@@H]2CN(c3nnc(-c4ccc(-c5cnn(C)c5)cc4Cl)s3)C[C@@H]2C1 [Example 79, 2-(2-chloro-4-(1-methyl-1H-pyrazol-4-yl)phenyl)-5-((3aR,6aS)-5-methylhexahydropyrrolo[3,4-c]pyrrol-2(1H)-yl)-1,3,4-thiadiazole] | 150 nM | 2.76 fold |
| COc1cc(-n2cccn2)ccc1-c1nnc(CC2CC(C)(C)NC(C)(C)C2)s1 [Example 98, 2-(2-methoxy-4-(1H-pyrazol-1-yl)phenyl)-5-((2,2,6,6-tetramethylpiperidin-4-yl)methyl)-1,3,4-thiadiazole] | 818 nM | 2.19 fold |
| CN(c1nnc(-c2ccc(-n3cccn3)cc2O)s1)C1CC(C)(C)NC(C)(C)C1 [Example 87, 2-(5-(methyl(2,2,6,6-tetramethylpiperidin-4-yl)amino)-1,3,4-thiadiazol-2-yl)-5-(1H-pyrazol-1-yl)phenol] | 171 nM | 2.76 fold |
| Clc1cc(-c2cn[nH]c2)ccc1-c1nnc(N2CCC3(CCCNC3)C2)s1 (stereo not shown) [Example 106, 2-(2-chloro-4-(1H-pyrazol-4-yl)phenyl)-5-(2,7-diazaspiro[4.5]decan-2-yl)-1,3,4-thiadiazole•Hydrochloride Salt] | 1660 nM | 2.50 fold |
| COc1cc(-c2cccnc2)ccc1-c1nnc(N(C)C2CC(C)(C)NC(C)(C)C2)s1 [Example 75, 5-(2-methoxy-4-(pyridin-3-yl)phenyl)-N-methyl-N-(2,2,6,6-tetramethylpiperidin-4-yl)-1,3,4-thiadiazol-2-amine] | 235 nM | 2.44 fold |
| COc1nc2ccccc2cc1-c1nnc(N(C)C2CC(C)(C)NC(C)(C)C2)s1 [Example 3, 5-(2-Methoxyquinolin-3-yl)-N-methyl-N-(2,2,6,6-tetramethylpiperidin-4-yl)-1,3,4-thiadiazol-2-amine] | 337 nM | 2.67 fold |
| CNc1ccn(-c2ccc(-c3nnc(N(C)C4CC(C)(C)NC(C)(C)C4)s3)c(OC)c2)n1 [Example 36, 5-(2-methoxy-4-(3-(methylamino)-1H-pyrazol-1-yl)phenyl)-N-methyl-N-(2,2,6,6-tetramethyl-piperidin-4-yl)-1,3,4-thiadiazol-2-amine] | 163 nM | 2.15 fold |
| CN(c1nnc(-c2sc3ccccc3c2Cl)s1)C1CC(C)(C)NC(C)(C)C1 [Example 109, 5-(3-chlorobenzo[b]thiophen-2-yl)-N-methyl-N-(2,2,6,6-tetramethylpiperidin-4-yl)-1,3,4-thiadiazol-2-amine] | 534 nM | 2.75 fold |
| COc1cc(-c2cnn(C)c2)ccc1-c1nnc(N2CC3(CCNCC3)C2)s1 [Example 86, 2-(2-methoxy-4-(1-methyl-1H-pyrazol-4-yl)phenyl)-5-(2,7-diazaspiro[3.5]nonan-2-yl)-1,3,4-thiadiazole] | 152 nM | 2.33 fold |
| Fc1cc(-c2nnc(N3C[C@H]4CNC[C@H]4C3)s2)c(F)cc1-c1cn[nH]c1 [Example 53, 2-(2,5-difluoro-4-(1H-pyrazol-4-yl)phenyl)-5-((3aR,6aS)-hexahydropyrrolo[3,4-c]pyrrol-2(1H)-yl)-1,3,4-thiadiazole] | 70 nM | 2.56 fold |
| COc1ccc(-c2ccc(-c3nnc(N(C)C4CC(C)(C)NC(C)(C)C4)s3)c(OC)c2)cn1 [Example 78, 5-(2-methoxy-4-(6-methoxypyridin-3-yl)phenyl)-N-methyl-N-(2,2,6,6-tetramethyl-piperidin-4-yl)-1,3,4-thiadiazol-2-amine] | 165 nM | 2.52 fold |
| CN(c1nnc(-c2ccc3cc(O)ccc3c2)s1)C1CC(C)(C)NC(C)(C)C1 [Example 2, 6-(5-(Methyl(2,2,6,6-tetramethylpiperidin-4-yl)amino)-1,3,4-thiadiazol-2-yl)naphthalen-2-ol] | 436 nM | 2.66 fold |
| CN(c1nnc(-c2c(O)cc(-c3cn[nH]c3)cc2F)s1)C1CC(C)(C)NC(C)(C)C1 [Example 90, 3-fluoro-2-(5-(methyl(2,2,6,6-tetramethylpiperidin-4-yl)amino)-1,3,4-thiadiazol-2-yl)-5-(1H-pyrazol-4-yl)phenol] | 6 nM | 2.57 fold |
| CN(c1nnc(-c2ccc(-n3cccn3)cc2Cl)s1)C1CC(C)(C)NC(C)(C)C1 [Example 65, 5-(2-chloro-4-(1H-pyrazol-1-yl)phenyl)-N-methyl-N-(2,2,6,6-tetramethylpiperidin-4-yl)-1,3,4-thiadiazol-2-amine] | 273 nM | 2.37 fold |
| CN(c1nnc(-c2ccc(-c3ccn(C)c(=O)c3)cc2O)s1)C1CC(C)(C)NC(C)(C)C1 [Example 18, 4-(3-Hydroxy-4-(5-(methyl(2,2,6,6-tetramethyl-piperidin-4-yl)amino)-1,3,4-thiadiazol-2-yl)phenyl)-1-methylpyridin-2(1H)-one] | 61 nM | 3.36 fold |
| CN(c1nnc(-c2c(O)cc(-c3cn[nH]c3)c(F)c2F)s1)C1CC(C)(C)NC(C)(C)C1 [Example 91, 3,4-difluoro-2-(5-(methyl(2,2,6,6-tetramethylpiperidin-4-yl)amino)-1,3,4-thiadiazol-2-yl)-5-(1H-pyrazol-4-yl)phenol] | – | 2.67 fold |
| Cc1cc(-c2cnn(C)c2)ccc1-c1nnc(N(C)C2CC(C)(C)NC(C)(C)C2)s1 [Example 11, N-Methyl-5-(2-methyl-4-(1-methyl-1H-pyrazol-4-yl)phenyl)-N-(2,2,6,6-tetramethylpiperidin-4-yl)-1,3,4-thiadiazol-2-amine] | 684 nM | 2.84 fold |
| CN(c1nnc(-c2ccc(-c3cn[nH]c3)cc2F)s1)C1CC(C)(C)NC(C)(C)C1 [Example 76, 5-(2-fluoro-4-(1H-pyrazol-4-yl)phenyl)-N-methyl-N-(2,2,6,6-tetramethylpiperidin-4-yl)-1,3,4-thiadiazol-2-amine] | 43 nM | 3.06 fold |
| COc1cc(-c2ccn(C)c(=O)c2)ccc1-c1nnc(N(C)C2CC(C)(C)NC(C)(C)C2)s1 [Example 8, 4-(3-Methoxy-4-(5-(methyl(2,2,6,6-tetramethyl-piperidin-4-yl)amino)-1,3,4-thiadiazol-2-yl)phenyl)-1-methylpyridin-2(1H)-one] | 134 nM | 3.20 fold |
